Measurements published in patent US20080057134A1, “Antifungal compositions and method” (AgION Technologies, Inc., priority 2006, published 2008).

Tested on: Aspergillus niger
Assay: Direct inoculation fungal testing of coated filter paper (modified ASTM G21)
Assay type: cell-based
Conditions: text summary of Tables 1 and 2, Aspergillus niger

SMILES: Cc1cc(CC(C)CC(C)(C)C)n(O)c(=O)c1.NCCO (stereo not shown) [picrotone olamine, monoethanolamine salt of hydroxymethyl trimethylpentyl pyridone]
- antifungal properties / bioefficacy in words: excellent to good antifungal properties
